In patent publication US20260098061A1, “EPHA2-BINDING PENDING PEPTIDE AND COMPOSITION COMPRISING SAME” (PeptiDream Inc., priority 2022, published 2026):
Numbered stars: 1 amine (or outer) side, 2 acyl side, 3 side chain; on linkers, the order of the positions; unused ones are H or OH. Bridge positions count the residues as written; N and C are the ends. Square brackets hold non-standard residues; d marks the D form. Side chains are listed from the residue outwards. Peptide text beside a SMILES is read from it. * marks the point of attachment. NH(1-deoxy-D-glucityl) = OC[C@@H](O)[C@@H](O)[C@H](O)[C@@H](O)CN*; Trp(1-Me,7-Cl) = Cn1cc(C[C@H](N)C(=O)O)c2cccc(Cl)c21; Ala(2-NH2-4-pyridyl) = Nc1cc(C[C@H](N)C(=O)O)ccn1; dPhe(3-CONH2) = NC(=O)c1cccc(C[C@@H](N)C(=O)O)c1; X3 = CN([C@@H](Cc1ccnc(N)c1)C(=O)[*:2])[*:1]; Piperazinyl(4-CH2COOH) = O=C(O)CN1CCN(*)CC1; Trp(1-Me) = Cn1cc(C[C@H](N)C(=O)O)c2ccccc21; NMemTyr = CN[C@@H](Cc1cccc(O)c1)C(=O)O; NMehCit = CN[C@@H](CCCCNC(N)=O)C(=O)O; NMe3Pal = CN[C@@H](Cc1cccnc1)C(=O)O; NMeF = CN[C@@H](Cc1ccccc1)C(=O)O; hCit = NC(=O)NCCCC[C@H](N)C(=O)O; Gly(cBu) = N[C@H](C(=O)O)C1CCC1; NMeE = CN[C@@H](CCC(=O)O)C(=O)O; Aad = N[C@@H](CCCC(=O)O)C(=O)O; Cit = NC(=O)NCCC[C@H](N)C(=O)O; Pen = CC(C)(S)[C@H](N)C(=O)O; NMeA = CN[C@@H](C)C(=O)O; CO = O=C([*:1])[*:2]

Molecular target: T1, Recombinant Human EphA2 Fc Protein (Homo sapiens, UniProt P29317)
T1 construct: purchased Elabscience
Experiment: SPR interaction analysis (Biacore T200), kinetics of peptides against EphA2
Type: binding
Details: Recombinant Human EphA2 Fc Protein captured by Human Antibody Capture kit; single-cycle kinetics; 25° C.; HBS-P+ buffer with 1% DMSO
Method in brief: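 On a Biacore T200 at 25° C, Fc-tagged human EphA2 was captured via anti-human antibody; peptides ran as five serial dilutions in HBS-P+ pH 7.4 with 1% DMSO by single-cycle kinetics. Baseline-subtracted data fitted for ka and kd, from which KD was derived.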

| Compound | Kd [nM] |
| --- | --- |
| CC(C)C[C@@H]1NC(=O)[C@H](CC(N)=O)NC(=O)[C@H](Cc2ccccc2)N(C)C(=O)[C@@H](Cc2cccc(C(N)=O)c2)NC(=O)CSC[C@@H](C(N)=O)NC(=O)[C@H](CC(N)=O)NC(=O)[C@H]([C@@H](C)O)NC(=O)[C@H](Cc2cn(C)c3ccccc23)NC(=O)[C@H](CCCNC(N)=O)NC(=O)[C@H](Cc2cn(C)c3c(Cl)cccc23)NC(=O)[C@H](CCC(=O)O)N(C)C(=O)[C@H](CC(N)=O)NC1=O [PDC_EphA2-00026426, df3CON-Me3Py-N-L-N-MeN-W1Me7Cl-Cit-W1Me-T-N-C-NH2] ({CH2CO}-[dPhe(3-CONH2)][NMeF]NLN[NMeE][Trp(1-Me,7-Cl)][Cit][Trp(1-Me)]TNC-NH2; thioether N-12) | < 1 |
| CC(C)C[C@@H]1NC(=O)[C@H](Cc2ccnc(N)c2)NC(=O)[C@H](Cc2ccccc2)NC(=O)CSC[C@@H](C(N)=O)NC(=O)[C@H](Cc2cn(C)c3ccccc23)NC(=O)[C@H](Cc2ccccc2)N(C)C(=O)[C@H](Cc2cn(C)c3ccccc23)NC(=O)[C@H](C)N(C)C1=O [PDC_EphA2-00026479, F-4Py2NH2-L-MeA-W1Me-MeF-W1Me-C-NH2] ({CH2CO}-F[Ala(2-NH2-4-pyridyl)]L[NMeA][Trp(1-Me)][NMeF][Trp(1-Me)]C-NH2; thioether N-8) | 100 to 400 |
| CC(C)C[C@@H]1NC(=O)[C@H](Cc2ccnc(N)c2)NC(=O)[C@H](Cc2ccccc2)NC(=O)CSC[C@@H](C(N)=O)NC(=O)[C@H](Cc2cn(C)c3ccccc23)NC(=O)[C@H](Cc2ccccc2)N(C)C(=O)[C@H](Cc2cn(C)c3ccccc23)NC(=O)[C@H](CCCCNC(N)=O)N(C)C1=O [PDC_EphA2-00026481, F-4Py2NH2-L-MeHcit-W1Me-MeF-W1Me-C-NH2] ({CH2CO}-F[Ala(2-NH2-4-pyridyl)]L[NMehCit][Trp(1-Me)][NMeF][Trp(1-Me)]C-NH2; thioether N-8) | 100 to 400 |
| CC(C)C[C@@H]1NC(=O)[C@H](CC(N)=O)NC(=O)[C@H](Cc2cccnc2)N(C)C(=O)[C@@H](Cc2cccc(C(N)=O)c2)NC(=O)CSC[C@@H](C(N)=O)NC(=O)[C@H](Cc2cn(C)c3ccccc23)NC(=O)[C@H](CCCCNC(N)=O)NC(=O)[C@H](Cc2cn(C)c3c(Cl)cccc23)NC(=O)[C@H](Cc2ccccc2)N(C)C(=O)[C@H](CO)NC1=O [PDC_EphA2-00026600, df3CON-Me3Py-N-L-S-MeF-W1Me7Cl-Hcit-W1Me-C-NH2] ({CH2CO}-[dPhe(3-CONH2)][NMe3Pal]NLS[NMeF][Trp(1-Me,7-Cl)][hCit][Trp(1-Me)]C-NH2; thioether N-10) | 1 to 10 |
| CC(C)C[C@@H]1NC(=O)[C@H](CC(N)=O)NC(=O)[C@H](Cc2cccnc2)N(C)C(=O)[C@@H](Cc2cccc(C(N)=O)c2)NC(=O)CSC[C@@H](C(N)=O)NC(=O)[C@H](Cc2cn(C)c3ccccc23)NC(=O)[C@H](CCCCNC(N)=O)NC(=O)[C@H](Cc2cn(C)c3c(Cl)cccc23)NC(=O)[C@H](Cc2cccnc2)N(C)C(=O)[C@H](CO)NC1=O [PDC_EphA2-00026601, df3CON-Me3Py-N-L-S-Me3Py-W1Me7Cl-Hcit-W1Me-C-NH2] ({CH2CO}-[dPhe(3-CONH2)][NMe3Pal]NLS[NMe3Pal][Trp(1-Me,7-Cl)][hCit][Trp(1-Me)]C-NH2; thioether N-10) | 1 to 10 |
| CN1C(=O)[C@H](CO)NC(=O)[C@H](C2CCC2)NC(=O)[C@H](CC(N)=O)NC(=O)[C@H](Cc2cccnc2)N(C)C(=O)[C@@H](Cc2cccc(C(N)=O)c2)NC(=O)CSC[C@@H](C(N)=O)NC(=O)[C@H](Cc2cn(C)c3ccccc23)NC(=O)[C@H](CCCCNC(N)=O)NC(=O)[C@H](Cc2cn(C)c3c(Cl)cccc23)NC(=O)[C@@H]1Cc1cccnc1 [PDC_EphA2-00026602, df3CON-Me3Py-N-Cbg-S-Me3Py-W1Me7Cl-Hcit-W1Me-C-NH2] ({CH2CO}-[dPhe(3-CONH2)][NMe3Pal]N[Gly(cBu)]S[NMe3Pal][Trp(1-Me,7-Cl)][hCit][Trp(1-Me)]C-NH2; thioether N-10) | < 1 |
| CN1C(=O)[C@H](CCC(=O)NC[C@H](O)[C@@H](O)[C@H](O)[C@H](O)CO)NC(=O)[C@H](C2CCC2)NC(=O)[C@H](CC(N)=O)NC(=O)[C@H](Cc2cccnc2)N(C)C(=O)[C@@H](Cc2cccc(C(N)=O)c2)NC(=O)CSC[C@@H](C(N)=O)NC(=O)[C@H](Cc2cn(C)c3ccccc23)NC(=O)[C@H](CCCCNC(=O)N2CCN(CC(=O)O)CC2)NC(=O)[C@H](Cc2cn(C)c3c(Cl)cccc23)NC(=O)[C@@H]1Cc1cccnc1 [PDC_EphA2-00026603, df3CON-Me3Py-N-Cbg-Qglucamine-Me3Py-W1Me7Cl-KCOpipzaa-W1Me-C-NH2] ({CH2CO}-[dPhe(3-CONH2)][NMe3Pal]N[Gly(cBu)]E(NH(1-deoxy-D-glucityl))[NMe3Pal][Trp(1-Me,7-Cl)]K([CO-Piperazinyl(4-CH2COOH)])[Trp(1-Me)]C-NH2; thioether N-10) | < 1 |
| CN1C(=O)[C@H](CCC(=O)NC[C@H](O)[C@@H](O)[C@H](O)[C@H](O)CO)NC(=O)[C@H](C2CCC2)NC(=O)[C@H](CC(N)=O)NC(=O)[C@H](Cc2cccnc2)N(C)C(=O)[C@@H](Cc2cccc(C(N)=O)c2)NC(=O)CSC[C@@H](C(N)=O)NC(=O)[C@H](Cc2cn(C)c3ccccc23)NC(=O)[C@H](CCC(=O)NC[C@H](O)[C@@H](O)[C@H](O)[C@H](O)CO)NC(=O)[C@H](Cc2cn(C)c3c(Cl)cccc23)NC(=O)[C@@H]1Cc1cccnc1 [PDC_EphA2-00026604, df3CON-Me3Py-N-Cbg-Qglucamine-Me3Py-W1Me7Cl-Qglucamine-W1Me-C-NH2] ({CH2CO}-[dPhe(3-CONH2)][NMe3Pal]N[Gly(cBu)]E(NH(1-deoxy-D-glucityl))[NMe3Pal][Trp(1-Me,7-Cl)]E(NH(1-deoxy-D-glucityl))[Trp(1-Me)]C-NH2; thioether N-10) | < 1 |
| CN1C(=O)[C@H](CCC(=O)NC[C@H](O)[C@@H](O)[C@H](O)[C@H](O)CO)NC(=O)[C@H](C2CCC2)NC(=O)[C@H](CC(N)=O)NC(=O)[C@H](Cc2ccnc(N)c2)N(C)C(=O)[C@@H](Cc2cccc(C(N)=O)c2)NC(=O)CSC[C@@H](C(N)=O)NC(=O)[C@H](Cc2cn(C)c3ccccc23)NC(=O)[C@H](CCCCNC(=O)N2CCN(CC(=O)O)CC2)NC(=O)[C@H](Cc2cn(C)c3c(Cl)cccc23)NC(=O)[C@@H]1Cc1cccnc1 [PDC_EphA2-00026605, df3CON-Me4Py2NH2-N-Cbg-Qglucamine-Me3Py-W1Me7Cl-KCOpipzaa-W1Me-C-NH2] ({CH2CO}-[dPhe(3-CONH2)][X3]N[Gly(cBu)]E(NH(1-deoxy-D-glucityl))[NMe3Pal][Trp(1-Me,7-Cl)]K([CO-Piperazinyl(4-CH2COOH)])[Trp(1-Me)]C-NH2; thioether N-10) | 1 to 10 |
| CN1C(=O)[C@H](CCCC(N)=O)NC(=O)[C@H](C2CCC2)NC(=O)[C@H](CC(N)=O)NC(=O)[C@H](Cc2cccnc2)N(C)C(=O)[C@@H](Cc2cccc(C(N)=O)c2)NC(=O)CSC[C@@H](C(N)=O)NC(=O)[C@H](Cc2cn(C)c3ccccc23)NC(=O)[C@H](CCCCNC(=O)N2CCN(CC(=O)O)CC2)NC(=O)[C@H](Cc2cn(C)c3c(Cl)cccc23)NC(=O)[C@@H]1CCC(=O)O [PDC_EphA2-00026606, df3CON-Me3Py-N-Cbg-Hgn-MeE-W1Me7Cl-KCOpipzaa-W1Me-C-NH2] ({CH2CO}-[dPhe(3-CONH2)][NMe3Pal]N[Gly(cBu)][Aad](NH2)[NMeE][Trp(1-Me,7-Cl)]K([CO-Piperazinyl(4-CH2COOH)])[Trp(1-Me)]C-NH2; thioether N-10) | < 1 |
| CN1C(=O)[C@H](CCC(=O)NC[C@H](O)[C@@H](O)[C@H](O)[C@H](O)CO)NC(=O)[C@H](C2CCC2)NC(=O)[C@H](CC(N)=O)NC(=O)[C@H](Cc2cccnc2)N(C)C(=O)[C@@H](Cc2cccc(C(N)=O)c2)NC(=O)CSC[C@@H](C(N)=O)NC(=O)[C@H](Cc2cn(C)c3ccccc23)NC(=O)[C@H](CCCCNC(N)=O)NC(=O)[C@H](Cc2cn(C)c3c(Cl)cccc23)NC(=O)[C@@H]1CCC(=O)O [PDC_EphA2-00026607, df3CON-Me3Py-N-Cbg-Qglucamine-MeE-W1Me7Cl-Hcit-W1Me-C-NH2] ({CH2CO}-[dPhe(3-CONH2)][NMe3Pal]N[Gly(cBu)]E(NH(1-deoxy-D-glucityl))[NMeE][Trp(1-Me,7-Cl)][hCit][Trp(1-Me)]C-NH2; thioether N-10) | < 1 |
| CN1C(=O)[C@H](CCCC(N)=O)NC(=O)[C@H](C2CCC2)NC(=O)[C@H](CC(N)=O)NC(=O)[C@H](Cc2cccc(O)c2)N(C)C(=O)[C@@H](Cc2cccc(C(N)=O)c2)NC(=O)CSC[C@@H](C(N)=O)NC(=O)[C@H](Cc2cn(C)c3ccccc23)NC(=O)[C@H](CCCCNC(=O)N2CCN(CC(=O)O)CC2)NC(=O)[C@H](Cc2cn(C)c3c(Cl)cccc23)NC(=O)[C@@H]1CCC(=O)O [PDC_EphA2-00026608, df3CON-MeF3H-N-Cbg-Hgn-MeE-W1Me7Cl-KCOpipzaa-W1Me-C-NH2] ({CH2CO}-[dPhe(3-CONH2)][NMemTyr]N[Gly(cBu)][Aad](NH2)[NMeE][Trp(1-Me,7-Cl)]K([CO-Piperazinyl(4-CH2COOH)])[Trp(1-Me)]C-NH2; thioether N-10) | < 1 |
| CN1C(=O)[C@H](CCCC(N)=O)NC(=O)[C@H](C2CCC2)NC(=O)[C@H](CC(N)=O)NC(=O)[C@H](Cc2cccnc2)N(C)C(=O)[C@@H](Cc2cccc(C(N)=O)c2)NC(=O)CSC(C)(C)[C@@H](C(N)=O)NC(=O)[C@H](Cc2cn(C)c3ccccc23)NC(=O)[C@H](CCCCNC(=O)N2CCN(CC(=O)O)CC2)NC(=O)[C@H](Cc2cn(C)c3c(Cl)cccc23)NC(=O)[C@@H]1CCC(=O)O [PDC_EphA2-00026609, df3CON-Me3Py-N-Cbg-Hgn-MeE-W1Me7Cl-KCOpipzaa-W1Me-CdMe-NH2] ({CH2CO}-[dPhe(3-CONH2)][NMe3Pal]N[Gly(cBu)][Aad](NH2)[NMeE][Trp(1-Me,7-Cl)]K([CO-Piperazinyl(4-CH2COOH)])[Trp(1-Me)][Pen]-NH2; thioether N-10) | 1 to 10 |
| C[C@@H]1SCC(=O)N[C@H](Cc2cccc(C(N)=O)c2)C(=O)N(C)[C@@H](Cc2cccnc2)C(=O)N[C@@H](CC(N)=O)C(=O)N[C@@H](C2CCC2)C(=O)N[C@@H](CCCC(N)=O)C(=O)N(C)[C@@H](CCC(=O)O)C(=O)N[C@@H](Cc2cn(C)c3c(Cl)cccc23)C(=O)N[C@@H](CCCCNC(=O)N2CCN(CC(=O)O)CC2)C(=O)N[C@@H](Cc2cn(C)c3ccccc23)C(=O)N[C@@H]1C(N)=O [PDC_EphA2-00026610, df3CON-Me3Py-N-Cbg-Hgn-MeE-W1Me7Cl-KCOpipzaa-W1Me-C3SMe-NH2] | 1 to 10 |
